Measurements from the supplement of paper PMC10307832.

Tests used:
Test in all cases: relative viability (nuclei count vs DMSO), 5 days (fraction); higher = more cells survive
OSI-027 + Bortezomib = compound: COc1cccc2cc(-c3nc([C@H]4CC[C@H](C(=O)O)CC4)n4ncnc(N)c34)[nH]c12 [OSI-027] + CC(C)C[C@H](NC(=O)[C@H](Cc1ccccc1)NC(=O)c1cnccn1)B(O)O [Bortezomib] (partner 0.002 µM)
Summary of the method: (§1)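 Relative viability equals treated-well nuclei counts divided by vehicle-well nuclei counts. Counts came from 4× images of lung cancer cell lines grown in 1536-well plates for 5 days after pin-tool dosing on the day after seeding. Dosing used one drug alone or a fixed anchor-drug dose plus five library-drug doses (not always all listed) in √10 steps, and values are medians of duplicate plates.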

Alpelisib + Palbociclib = compound: Cc1nc(NC(=O)N2CCC[C@H]2C(N)=O)sc1-c1ccnc(C(C)(C)C(F)(F)F)c1 [Alpelisib] + CC(=O)c1c(C)c2cnc(Nc3ccc(N4CCNCC4)cn3)nc2n(C2CCCC2)c1=O [Palbociclib] (partner 0.5 µM)
Summary of the method: as §1

Alpelisib + Linsitinib = compound: Cc1nc(NC(=O)N2CCC[C@H]2C(N)=O)sc1-c1ccnc(C(C)(C)C(F)(F)F)c1 [Alpelisib] + C[C@]1(O)C[C@@H](c2nc(-c3ccc4ccc(-c5ccccc5)nc4c3)c3c(N)nccn32)C1 [Linsitinib] (partner 1 µM)
Summary of the method: as §1

Alpelisib + Decitabine = compound: Cc1nc(NC(=O)N2CCC[C@H]2C(N)=O)sc1-c1ccnc(C(C)(C)C(F)(F)F)c1 [Alpelisib] + Nc1ncn([C@H]2C[C@H](O)[C@@H](CO)O2)c(=O)n1 [Decitabine] (partner 2 µM)
Summary of the method: as §1

Cell Line | relative viability (OSI-027 + Bortezomib; first compound 0.01 µM) | relative viability (OSI-027 + Bortezomib; first compound 0.03162 µM) | relative viability (OSI-027 + Bortezomib; first compound 0.1 µM) | relative viability (OSI-027 + Bortezomib; first compound 0.3162 µM) | relative viability (OSI-027 + Bortezomib; first compound 1 µM) | relative viability (Alpelisib + Palbociclib; first compound 0.04 µM) | relative viability (Alpelisib + Palbociclib; first compound 0.1265 µM) | relative viability (Alpelisib + Palbociclib; first compound 0.4 µM) | relative viability (Alpelisib + Palbociclib; first compound 1.265 µM) | relative viability (Alpelisib + Palbociclib; first compound 4 µM) | relative viability (Alpelisib + Linsitinib; first compound 0.04 µM) | relative viability (Alpelisib + Linsitinib; first compound 0.1265 µM) | relative viability (Alpelisib + Linsitinib; first compound 0.4 µM) | relative viability (Alpelisib + Linsitinib; first compound 1.265 µM) | relative viability (Alpelisib + Linsitinib; first compound 4 µM) | relative viability (Alpelisib + Decitabine; first compound 0.04 µM) | relative viability (Alpelisib + Decitabine; first compound 0.1265 µM) | relative viability (Alpelisib + Decitabine; first compound 0.4 µM) | relative viability (Alpelisib + Decitabine; first compound 1.265 µM) | relative viability (Alpelisib + Decitabine; first compound 4 µM)
NCI-H2347 | 0.857 | 0.904 | 0.741 | 0.601 | 0.493 | 0.417 | 0.45 | 0.407 | 0.474 | 0.423 | 0.997 | 0.941 | 1.03 | 0.84 | 0.952 | 0.641 | 0.635 | 0.657 | 0.539 | 0.571
PC-14 | 1.03 | 0.93 | 0.955 | 0.989 | 0.652 | 0.556 | 0.499 | 0.602 | 0.464 | 0.497 | 0.91 | 0.894 | 0.98 | 0.856 | 0.816 | 0.244 | 0.243 | 0.248 | 0.196 | 0.221
LXF-289 | 1.03 | 1.05 | 1.05 | 0.984 | 0.837 | 0.55 | 0.562 | 0.653 | 0.534 | 0.604 | 0.935 | 0.952 | 1.05 | 0.952 | 0.996 | 0.373 | 0.352 | 0.336 | 0.377 | 0.277
NCI-H1355 | 1.24 | 1.19 | 1.01 | 0.926 | 0.528 | 0.403 | 0.412 | 0.377 | 0.341 | 0.267 | 0.762 | 0.837 | 0.828 | 0.774 | 0.722 | 0.41 | 0.386 | 0.328 | 0.328 | 0.297
NCI-H727 | 0.915 | 0.9 | 0.896 | 0.766 | 0.682 | 0.569 | 0.584 | 0.702 | 0.452 | 0.523 | 0.292 | 0.306 | 0.388 | 0.27 | 0.177 | 0.973 | 0.859 | 0.881 | 0.854 | 0.828
NCI-H2023 | 0.944 | 0.926 | 0.898 | 0.687 | 0.358 | 0.312 | 0.309 | 0.326 | 0.258 | 0.223 | 0.612 | 0.634 | 0.628 | 0.574 | 0.444 | 0.205 | 0.188 | 0.234 | 0.245 | 0.183
NCI-H2009 | 1.07 | 1.09 | 0.933 | 0.929 | 0.592 | 0.235 | 0.23 | 0.245 | 0.215 | 0.164 | 1.2 | 1.12 | 1.27 | 1.19 | 1.12 | 0.35 | 0.458 | 0.398 | 0.389 | 0.354
HCC-78 | 0.611 | 0.428 | 0.454 | 0.344 | 0.35 | 0.521 | 0.545 | 0.479 | 0.459 | 0.43 | 0.448 | 0.477 | 0.601 | 0.42 | 0.345 | 0.705 | 0.67 | 0.657 | 0.562 | 0.533
NCI-H322M | 1.23 | 1.24 | 1.13 | 0.983 | 0.986 | 0.47 | 0.493 | 0.453 | 0.389 | 0.309 | 0.914 | 0.953 | 0.868 | 0.836 | 0.75 | 0.722 | 0.707 | 0.721 | 0.627 | 0.529
